Reference: article PMC9558053, “Development of a novel high-throughput screen for the identification of new inhibitors of protein S-acylation” (The Journal of Biological Chemistry, 2022)

Biological target: T1, human zDHHC2 (Homo sapiens, UniProt Q9UIJ5)
T1 construct: expressed in transfected cells; host or cells: HEK293T
T1 sequence (Q9UIJ5 1-367): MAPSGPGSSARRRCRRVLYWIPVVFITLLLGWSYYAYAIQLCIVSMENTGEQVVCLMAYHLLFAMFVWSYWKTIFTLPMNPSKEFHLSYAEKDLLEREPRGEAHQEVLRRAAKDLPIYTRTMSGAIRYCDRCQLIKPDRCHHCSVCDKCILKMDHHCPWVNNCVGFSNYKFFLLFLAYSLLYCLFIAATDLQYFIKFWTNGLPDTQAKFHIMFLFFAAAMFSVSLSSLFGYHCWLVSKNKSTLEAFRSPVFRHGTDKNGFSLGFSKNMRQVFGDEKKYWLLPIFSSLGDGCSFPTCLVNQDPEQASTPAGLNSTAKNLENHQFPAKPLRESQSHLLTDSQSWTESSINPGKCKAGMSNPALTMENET
Assay: S-acylation (autoacylation) of HA-zDHHC2 in HEK293T cells, click chemistry
Format: cell-based
Conditions: resynthesized UoS compounds, 25 μM, p < 0.001 vs DMSO
Experimental: Figure 8 Activity of TTZ-1 (UoS) and TTZ-2 (UoS) against human zDHHC2 autoacylation expressed in mammalian cells. HEK293T cells were transfected with either the control plasmid pEF-BOS-HA (pEF) or a plasmid encoding HA-tagged human zDHHC2 (zD2) for 24 h. Cells were then preincubated for 4 h with UoS compounds TTZ-1 (UoS) (A) or TTZ-2 (UoS) (B) (25 μM final) or DMSO control before metabolic labeling with 100 μM C16:0-azide for 4 h. Cells were lysed, and proteins having incorporated C16:0-azide were labeled by click chemistry with an alkyne-IR800 dye. Protein samples were then resolved by SDS-PAGE, and the gel was scanned for the detection of the click chemistry signal in the infrared-800 channel. […] Two independent experiments were performed in sextuplicate, and the quantification data were gathered on the graphs below each set of membranes. […]
HEK293T cells were plated on poly-D-lysine–coated 24-well plates (catalog no.: 356413; Corning BioCoat, VWR) and transfected with 2.4 μg of pEF-zDHHC2 plasmid (or the control empty plasmid pEF-BOS-HA) for the measurement of zDHHC2 autoacylation and 4.8 μl of Lipofectamine 2000 (Invitrogen). […] Membranes were first stained with Revert 700 total protein stain kit (catalog no.: 926-11016; LI-COR), imaged, destained, and then analyzed by immunoblotting. Signals were quantified with ImageStudio software (LI-COR). […]

Structure (SMILES)	S-acylation of HA-zDHHC2 in HEK293T cells
O=C(Nc1cccc2c1OC(c1nnn[nH]1)CN2)c1ccc(OCCCCc2ccccc2)cc1 (centres unmarked) [TTZ-2, N-(2-(1H-Tetrazol-5-yl)-3,4-dihydro-2H-benzo[b][1,4]oxazin-8-yl)-4-(4-phenylbutoxy)benzamide]	significantly reduced
CCCCCCCOc1ccc(C(=O)Nc2cccc3c2OC(c2nnn[nH]2)CN3)cc1 (centres unmarked) [TTZ-1, N-(2-(1H-Tetrazol-5-yl)-3,4-dihydro-2H-benzo[b][1,4]oxazin-8-yl)-4-(heptyloxy)benzamide]	significantly reduced
